Measurements as given in patent US12708605B2, “Method of administering a hormone encapsulated by a hydrogel with a dual chamber syringe” (VITALTE LIFESCIENCES INC., priority 2024, dated 2026).

Assay: Saturation level of T in saline (T powder slurry)
Format: physicochemical
Description: The T powder was produced as a 2.5 mg/mL slurry in buffer to reach the near saturation point of T in the buffer. Samples of the T powder slurry were removed from only the top layer of the slurry fluid to avoid aspirating T particles in the slurry that may have precipitated at to the bottom. T pellets were collected directly from the vials in which they were stored. The 83 mg hydrogels containing 30% T were collected from Dulbecco's PBS buffer, rinsed, and dried. Each of the collected samples was then placed in a separate container of incubation media (saline in this instance) for the release studies.
Samples of the respective incubation media for the T powder, pelleted T, and hydrogel encapsulated T were collected at 4, 24, and 48 hours, with 2-3 replicates from each experimental group at each collection time. All collected samples were then diluted before assaying for released T in the incubation media. Initially, the samples collected at 4 hours were diluted 400-fold, while the samples collected at 24 and 48 hours were diluted 1600-fold. […] As a result, dilution testing was performed at dilutions of 1200, 1600, 1800, 2200, 2400, and 3000-fold. […]

C[C@]12CC[C@H]3[C@@H](CCC4=CC(=O)CC[C@@]43C)[C@@H]1CC[C@@H]2O [T powder, Testosterone]
approximate saturation level of T in saline: about 1.5 mg/L
